Results: patent US5804590A, “Treatment and prophylaxis of osteoporosis” (Sankyo Company, Limited, priority 1995, dated 1998)
“Also recorded” adds a separate entry of the source.

Key:
[1] = test system: Zucker Diabetic Fatty rats; test: Control of diabetes in ZDF rats; assay type: in vivo
Experimental: (§1) 1. Zucker Diabetic Fatty rats ("ZDF rats"): these are experimental animals with spontaneous diabetes mellitus. A test drug was administered to these animals in a conventional F2 powdery feed. This group is referred to as the "test ZDF group".
(§2) Compound No. 1, or 5-[4-(6-hydroxy-2,5,7,8-tetramethylchroman-2-ylmethoxy)benzyl]thiazolidin- 2,4-dione, also known as "troglitazone", was administered to 6 week old ZDF rats, by mixing it into F2 powdery feed in an amount of 0.2% w/w for a period of 13 weeks. The mean dosage was 165 mg/kg/day. […] At 19 weeks of age, the rats were sacrificed by ether anesthesia followed by blood-letting from the abdominal aorta. The femoral bones were excised to measure their bone mineral density. For the measurement by X ray, Bone Mineral Density Measuring Apparatus (DCS-600R, Aloka, Japan) was employed.
(§3) 3. A test ZDF group in which troglitazone was present in the feed in an amount of 0.2%, resulting in an average uptake of 132 mg/kg/day (hereinafter the "troglitazone ZDF group").
(§4) 4. A test ZDF group in which pioglitazone was present in the feed in an amount of 0.067%, resulting in an average uptake of 52.6 mg/kg/day (hereinafter the "pioglitazone ZDF group").
(§5) 3. A test ZDF group in which troglitazone was present in the feed in an amount of 0.05%, resulting in an average uptake of 43.5 mg/kg/day (hereinafter the "low troglitazone ZDF group").
(§6) 4. A test ZDF group in which troglitazone was present in the feed in an amount of 0.1%, resulting in an average uptake of 89.8 mg/kg/day (hereinafter the "high troglitazone ZDF group").
(§7) 5. A test ZDF group in which pioglitazone was present in the feed in an amount of 0.0125%, resulting in an average uptake of 12.4 mg/kg/day (hereinafter the "low pioglitazone ZDF group").
(§8) 6. A test ZDF group in which pioglitazone was present in the feed in an amount of 0.025%, resulting in an average uptake of 23.1 mg/kg/day (hereinafter the "high pioglitazone ZDF group").

rat = settings: J. Bone & Mineral Research, 10(1), S361 (1995); cited from earlier work
[2] = test system: Zucker Diabetic Fatty rats; test: Measurement of bone mineral density (femoral bones, ZDF rats); assay type: in vivo; settings: for Bone mineral density (BMD): mean ± standard error
Experimental: Osteoporosis may be assessed by a measurement of bone mineral density. Bone mineral density can be measured according to the method reported, for example, in Radioisotope, 37, (9), 521-524 (1988) or in Rinsho-Hoshasen, 35, (1), 41-48 (1990).
Three groups of animals were tested:
as §1
2. ZDF rats to which the F2 powdery feed is administered without the drug. This group is referred to as the "control ZDF group".
3. Normal experimental rats (i.e. not ZDF rats) to which the F2 powdery feed is administered without the drug. This group is referred to as the "normal group".
as §2
The experiment reported in Example 1 was repeated, using 4 groups of rats:
1. A normal group (as in Example 1).
2. A control ZDF group (as in Example 1).
as §3, §4
The experiment reported in Example 1 was repeated, but only for 4 weeks, using 6 groups of rats:
as §5, §6, §7, §8

[3] = Acute toxicity, oral administration; settings: mouse, in vivo; oral administration
Experimental: (§9) The acute toxicity of troglitazone was examined by a conventional procedure.
(§10) To 3 ddy-mice, a dose of 300 mg/kg of troglitazone was administered orally.
(§11) The acute toxicities of Compounds Nos. 2, 3, 4 and 10 were examined in a similar way by oral administration. The acute toxicity values were all found to be more than 300 mg/kg.

ddy-mice = test: Acute toxicity, oral administration; settings: in vivo, po, 300 mg/kg
Experimental: as §9, §10, §11

[4] = Example 2, troglitazone 132 mg/kg/day, pioglitazone 52.6 mg/kg/day
[5] = Example 3, troglitazone 43.5 and 89.8 mg/kg/day, pioglitazone 12.4 and 23.1 mg/kg/day
[6] = Example 2, at doses that fully control diabetes, compared with control ZDF rats
[7] = Example 3, low and high doses, 4 weeks, as compared with control ZDF group

| Structure (SMILES) | control of diabetes [1, 4] | control of diabetes [1, 5] | effect on bone mineral density (in words) [2, 6] | effect on bone mineral density (in words) [2, 7] | LD50 at 120 h [3] [mg/kg] | other results |
| --- | --- | --- | --- | --- | --- | --- |
| CCc1ccc(CCOc2ccc(CC3SC(=O)NC3=O)cc2)nc1 (centres unmarked) [pioglitazone, reference compound] | fully controlled diabetes | do not control diabetes or control it only partially; also recorded: incompletely effective against diabetes | reduced BMD to below the level found in untreated ZDF rats | not effective | – | anti-diabetic activity relative to troglitazone ([1]; statement in Example 2): more active than troglitazone; bone loss as assessed by bone mineral density (rat): lead to bone loss, as assessed by a decrease in bone mineral density; Bone mineral density (BMD) ([2]; Example 2, pioglitazone ZDF group, 0.067% in feed, 52.6 mg/kg/day, n=6, * p < 0.05 vs control ZDF (157.0 ± 2.2)): 149.3 ± 1.8 mg/cm^2; Bone mineral density (BMD) ([2]; Example 3, 4 weeks, high pioglitazone ZDF group, 0.025% in feed, 23.1 mg/kg/day, n=5, control ZDF 149.8 ± 1.0): 151.2 ± 0.7 mg/cm^2; Bone mineral density (BMD) ([2]; Example 3, 4 weeks, low pioglitazone ZDF group, 0.0125% in feed, 12.4 mg/kg/day, n=5, control ZDF 149.8 ± 1.0): 151.2 ± 0.9 mg/cm^2 |
| CCOC(=O)Oc1c(C)c(C)c2c(c1C)CCC(C)(COc1ccc(CC3SC(=O)NC3=O)cc1)O2 (centres unmarked) [compound 10] | – | – | – | – | > 300 | – |
| Cc1c(C)c2c(c(C)c1O)CCC(C)(COc1ccc(CC3SC(=O)NC3=O)cc1)O2 (centres unmarked) [Compound No. 1, 5-[4-(6-Hydroxy-2,5,7,8-tetramethylchroman-2-ylmethoxy)benzyl]thiazolidin-2,4-dione] | fully controlled diabetes | do not control diabetes or control it only partially; also recorded: incompletely effective against diabetes | increased BMD from the depressed level in the control ZDF rats almost to the level found in normal rats | improves BMD as compared with the control ZDF group | – | control of diabetes ([1]; Example 1, mean dosage 165 mg/kg/day in feed): diabetes is fully controlled; survival after 5 days (ddy-mice): all mice were alive; Bone mineral density (BMD) ([2]; Example 1, test ZDF group, 0.2% w/w in feed, mean 165 mg/kg/day, 13 weeks, n=7, * p < 0.05 vs control ZDF (164.6 ± 3.9), normal 187.3 ± 2.3): 172.8 ± 7.2 mg/cm^2; Bone mineral density (BMD) ([2]; Example 2, troglitazone ZDF group, 0.2% in feed, 132 mg/kg/day, n=6, *** p < 0.001 vs control ZDF (157.0 ± 2.2), normal 187.4 ± 1.5): 169.4 ± 1.1 mg/cm^2; Bone mineral density (BMD) ([2]; Example 3, 4 weeks, high troglitazone ZDF group, 0.1% in feed, 89.8 mg/kg/day, n=5, *** p < 0.001 vs control ZDF (149.8 ± 1.0)): 159.8 ± 1.2 mg/cm^2; Bone mineral density (BMD) ([2]; Example 3, 4 weeks, low troglitazone ZDF group, 0.05% in feed, 43.5 mg/kg/day, n=5, *** p < 0.001 vs control ZDF (149.8 ± 1.0), normal 153.4 ± 0.9): 156.6 ± 1.5 mg/cm^2 |
| CC1(COc2ccc(CC3SC(=O)NC3=O)cc2)CCc2cc(O)c(C(C)(C)C)cc2O1 (centres unmarked) [compound 4, 5-[4-(6-Hydroxy-2-methyl-7-t-butylchroman-2-ylmethoxy)benzyl]thiazolidin-2,4-dione] | – | – | – | – | > 300 | – |
| CC1(COc2ccc(CC3SC(=O)NC3=O)cc2)CCc2cc(O)ccc2O1 (centres unmarked) [compound 3] | – | – | – | – | > 300 | – |
| Cc1c(C)c2c(c(C)c1O)CCC(COc1ccc(CC3SC(=O)NC3=O)cc1)O2 (centres unmarked) [compound 2] | – | – | – | – | > 300 | – |
